This assay concerns the target Aβ1-40 (Homo sapiens, UniProt P05067). The class given is biochemical. Further details: ΔLag: unit not given here. The following applies: for ΔLag: Table XI. An excerpt:
The nucleation assay is employed to determine the ability of test compounds to alter (e.g. inhibit) the early events in formation of β-AP fibers from monomeric β-AP. Characteristic of a nucleated polymerization mechanism, a lag time is observed prior to nucleation, after which the peptide rapidly forms fibers as reflected in a linear rise in turbidity. The time delay before polymerization of β-AP monomer can be quantified as well as the extent of formation of insoluble fiber by light scattering (turbidity). Polymerization reaches equilibrium when the maximum turbidity reaches a plateau The turbidity of a solution of natural β-AP in the absence or presence of various concentrations of a β-amyloid modulator compound is determined by measuring the apparent absorbance of the solution at 405 nm (A405 nm) over time. The threshold of sensitivity for the measurement of turbidity is in the range of 15-20 μM β-AP. […] This assay can be performed using stirring or shaking to accelerate polymerization, thereby increasing the speed of the assay. Moreover the assay can be adapted to a 96-well plate format to screen multiple compounds.
HFIP-solubilized peptide is sonicated in a waterbath sonicator for 5 min at highest setting, then evaporated to dryness under a stream of argon. The peptide film is resuspended in anhydrous dimethylsulfoxide (DMSO) at a concentration of 6.9 mg/ml (25× concentration), sonicated for 5 min as before, then filtered through a 0.2 micron nylon syringe filter (VWR cat. No.28196-050). Test compounds are dissolved in DMSO at a 100× concentration. […] Ten microliters of the mixture is then added to the bottom of a well of a Corning Costar ultra low binding 96-well plate (Coming Costar, Cambridge Mass.; cat. No. 2500). Ninety microliters of water is added to the well, the plate is shaken on a rotary shaken at a constant speed at room temperature for 30 seconds, an additional 100 μl of 2× PTL buffer (20 mM NaH2PO4, 300 mM NaCl, pH 7.4) is added to the well, the plate is reshaken for 30 seconds and a baseline (t=0) turbidity reading is taken by measuring the apparent absorbance at 405 nm using a Bio-Rad Model 450 Microplate Reader. The plate is then returned to the shaker and shaken continuously for 5 hours. Turbidity readings are taken at 15 minute intervals.
β-amyloid aggregation in the absence of any modulators results in enhanced turbidity of the natural β-AP solution (i.e., an increase in the apparent absorbance at 405 nm over time). […]

[1] abbreviates: Table IV, hydrophobic modifying groups, 5 μM test compound.
[2] abbreviates: Table V, hydroxylated and oxygenated modifying groups, 5 μM test compound.

Read-outs that look alike come from different tables or passages of the source. Square brackets hold non-standard residues; d marks the D form. Peptide text beside a SMILES is read from it. * marks the point of attachment. Isoquinolin(3-yl)carbonyl = O=C(c1cc2ccccc2cn1)*; Quinoline4carbonyl = O=C(c1ccnc2ccccc12)*; Acetyl(3-pyridyl) = O=C(Cc1cccnc1)*; Acetyl(4-pyridyl) = O=C(Cc1ccncc1)*; Benzoyl(4-OH) = O=C(c1ccc(O)cc1)*; d3Pal = N[C@H](Cc1cccnc1)C(=O)O; Isonicotinoyl = O=C(c1ccncc1)*; X1 = O=C(c1cc2cc(O)ccc2cc1O)*; X5 = O=C(c1nccc2ccccc12)* Bounds are passed on as bounds.

Aβ1-40, sequence (P05067 672-711): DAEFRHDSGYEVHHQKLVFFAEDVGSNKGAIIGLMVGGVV

Consider “1-Adamantanecarbonyl-d(LVFF)-nh2 [PPI-492]”, for which the “ΔLag 5 μM” value under setting [1] worked out at 1.1.

On to “2,4-Dihydroxybenzoyl-d(LVFF)-nh2 [PPI-486]”, for which the “ΔLag 5 μM” value under setting [2] is 1.2.

Take “2,4-Dihydroxybenzoyl-d(LVFFA)-nh2 [PPI-532]”: where the note is “Table IX, 5 μM test compound”, the “ΔLag 5 μM” value is 1.7.

On to “2-Formylphenoxyacetyl-d(LVFFA)-nh2 [PPI-554]”, for which the “ΔLag 5 μM” value (Table IX, 5 μM test compound) is on record as 2.6.

For the molecule “2-Hydroxycinnamoyl-d(LVFFA)-nh2 [PPI-536]”, the “ΔLag 5 μM” value (Table IX, 5 μM test compound) turned out to be 1.4.

For “2-Hydroxyphenylacetyl-d(LVFF)-nh2 [PPI-481]”, the “ΔLag 5 μM” value under setting [2] was 2.0.

For the molecule “3,4-Dihydroxycinnamoyl-d(AFFVL)-nh2 [PPI-569]”, under “Table IX, 5 μM test compound”, the “ΔLag 5 μM” value was determined as 2.6.

For “3,4-Dihydroxycinnamoyl-d(LFFVL)-nh2 [PPI-593]”, the “ΔLag 5 μM” value (Table IX, 5 μM test compound) turned out to be 2.0.

For “3,4-Dihydroxycinnamoyl-d(LVFF)-nh2 [PPI-491]”, the “ΔLag 5 μM” value under setting [2] is 3.0.

In the case of “3,4-Dihydroxycinnamoyl-d(LVFFA)-nh2 [PPI-543]”, the “ΔLag 5 μM” value (Table IX, 5 μM test compound) is 1.6.

On to “3,5-Dihydroxy-2-naphthoyl-d(AFFVL)-nh2 [PPI-568]”, for which the “ΔLag 5 μM” value (Table IX, 5 μM test compound) is given as more than 6.

In the case of “3,5-Dihydroxy-2-naphthoyl-d(LVFF)-nh2 [PPI-487]”, under setting [2], the “ΔLag 5 μM” value was 2.2.

As to “3,5-Dihydroxy-2-naphthoyl-d(LVFFA)-nh2 [PPI-523]”, the “ΔLag 5 μM” value was 3.8 under setting [2] and 2.1 (Table VIII, 5 μM test compound).

Consider “3,7-Dihydroxy-2-naphthoyl-d(FFFVL)-nh2 [PPI-650]”, for which the “ΔLag 5 μM” value (Table IX, 5 μM test compound) came to 2.2.

Regarding “3,7-Dihydroxy-2-naphthoyl-d(LFFVL)-nh2 [PPI-648]”, where the note is “Table IX, 5 μM test compound”, the “ΔLag 5 μM” value came to 3.1.

Consider “3,7-Dihydroxy-2-naphthoyl-d(LVFFA)-nh2 [PPI-548]”, for which the “ΔLag 5 μM” value (Table VIII, 5 μM test compound) stood at 2.5.

As to “3-(2-Hydroxyphenyl)propionyl-d(AFFVL)-nh2 [PPI-610]”, the “ΔLag 5 μM” value (Table IX, 5 μM test compound) is listed as 4.5.

For the molecule “3-(2-Hydroxyphenyl)propionyl-d(FFVL)-nh2 [PPI-615]”, the “ΔLag 5 μM” value (Table IX, 5 μM test compound) is reported as 2.0.

As to “3-(4-Hydroxyphenyl)propionyl-d(FFVL)-nh2 [PPI-616]”, the “ΔLag 5 μM” value (Table IX, 5 μM test compound) is recorded as 1.5.

With 3-Formylbenzoyl-d(LVFFA)-nh2 [PPI-546], the “ΔLag 5 μM” value (Table IX, 5 μM test compound) came out at 1.9.

As to “3-Hydroxycinnamoyl-d(LVFFA)-nh2 [PPI-538]”, the “ΔLag 5 μM” value (Table IX, 5 μM test compound) is 2.0.

Regarding “3-Hydroxyphenylacetyl-d(LVFF)-nh2 [PPI-483]”, the “ΔLag 5 μM” value runs as follows: (Table IX, 5 μM test compound) 2.9; under setting [2], 2.2.

As for “4-(2-Hydroxyphenyl)propionyl-d(AFFVL)-nh2 [PPI-611]”, the “ΔLag 5 μM” value (Table IX, 5 μM test compound) was 3.2.

As to “4-Hydroxy-3-methoxycinnamoyl-d(LVFFA)-nh2 [PPI-555]”, the “ΔLag 5 μM” value (Table IX, 5 μM test compound) was found to be 1.7.

In the case of 4-Hydroxybenzoyl-d(AFFVL)-nh2 [PPI-629], where the note is “Table IX, 5 μM test compound”, the “ΔLag 5 μM” value stood at 2.9.

Turning to 4-Hydroxybenzoyl-d(LFFFL)-nh2 [PPI-643], for the setting “Table IX, 5 μM test compound”, the “ΔLag 5 μM” value worked out at 2.2.

Turning to “4-Hydroxycinnamoyl-d(AFFVL)-nh2 [PPI-587]”, the “ΔLag 5 μM” value (Table IX, 5 μM test compound) is given as 3.7.

For “4-Hydroxycinnamoyl-d(LVFFA)-nh2 [PPI-537]”, the “ΔLag 5 μM” value worked out at 1.6 (Table IX, 5 μM test compound) and 1.0 under setting [2].

For “4-Hydroxyphenylacetyl-d(FFFVL)-nh2 [PPI-651]”, the “ΔLag 5 μM” value (Table IX, 5 μM test compound) stood at 2.1.

In the case of “4-Hydroxyphenylacetyl-d(LFFVL)-nh2 [PPI-649]”, the “ΔLag 5 μM” value (Table IX, 5 μM test compound) is 5.1.

As for “4-Hydroxyphenylacetyl-d(LVFFA)-nh2 [PPI-559]”, the “ΔLag 5 μM” value (Table VIII, 5 μM test compound) was found to be 3.5.

In the case of 4-Methylvaleryl-d(LVFFA)-nh2 [PPI-524], the “ΔLag 5 μM” value under setting [1] turned out to be 1.6.

As to “5-Hydantoinacetyl-d(LVFFA)-nh2 [PPI-539]”, for the setting “Table IX, 5 μM test compound”, the “ΔLag 5 μM” value was 2.4.

For the molecule `CC(C)C[C@@H](N)C(=O)N[C@@H](C(=O)N[C@H](Cc1ccccc1)C(=O)N[C@H](Cc1ccccc1)C(=O)N[C@H](Cc1ccccc1)C(N)=O)C(C)C` [PPI-656, H-d(LVFFF)-nh2] (H-[dL][dV][dF][dF][dF]-NH2), the ΔLag is, setting by setting: (0.5 μM test compound) 2.3; (5 μM test compound) more than 2.5.

Consider `CC(C)C[C@@H](N)C(=O)N[C@@H](C(=O)N[C@H](Cc1ccccc1)C(=O)N[C@H](Cc1ccccc1)C(=O)N[C@@H](C(N)=O)C(C)C)C(C)C` [PPI-657, H-d(LVFFV)-nh2] (H-[dL][dV][dF][dF][dV]-NH2), for which the ΔLag is, setting by setting: (0.5 μM test compound) 1.7; (5 μM test compound) more than 10.

As to `CC(C)C[C@@H](NC(=O)[C@H](NC(=O)[C@@H](Cc1ccccc1)NC(=O)[C@@H](Cc1ccccc1)NC(=O)[C@@H](Cc1cccnc1)NC(=O)c1cc2cc(O)ccc2cc1O)C(C)C)C(N)=O` [PPI-664, 3,7-Dihidroxy-2-naphthol-d(Pal-FFVL)-nh2] (X1-[d3Pal][dF][dF][dV][dL]-NH2), the ΔLag is, setting by setting: (0.5 μM test compound) 0; (5 μM test compound) 2.

Take `CC(C)C[C@@H](NC(=O)[C@H](NC(=O)[C@@H](Cc1ccccc1)NC(=O)[C@@H](Cc1ccccc1)NC(=O)[C@@H](Cc1cccnc1)NC(=O)c1ccc(O)cc1)C(C)C)C(N)=O` [PPI-665, 4-Hydroxybenzoyl-d(Pal-FFVL)-nh2] ({Benzoyl(4-OH)}-[d3Pal][dF][dF][dV][dL]-NH2): the ΔLag is on record as 1.5 (0.5 μM test compound) and 2 (5 μM test compound).

Consider `CC(C)C[C@@H](NC(=O)[C@H](NC(=O)[C@@H](Cc1ccccc1)NC(=O)[C@@H](Cc1ccccc1)NC(=O)[C@@H](C)NC(=O)Cc1cccnc1)C(C)C)C(N)=O` [PPI-730, 3-Pyridylacetyl-d(AFFVL)-nh2] ({Acetyl(3-pyridyl)}-[dA][dF][dF][dV][dL]-NH2), for which the ΔLag (5 μM test compound) is given as 2.

Turning to `CC(C)C[C@@H](NC(=O)[C@H](NC(=O)[C@@H](Cc1ccccc1)NC(=O)[C@@H](Cc1ccccc1)NC(=O)[C@@H](C)NC(=O)c1ccncc1)C(C)C)C(N)=O` [PPI-732, Isonicotinoyl-d(AFFVL)-nh2] (Isonicotinoyl-[dA][dF][dF][dV][dL]-NH2), the ΔLag (5 μM test compound) is less than 2.

On to `CC(C)C[C@@H](NC(=O)[C@H](NC(=O)[C@@H](Cc1ccccc1)NC(=O)[C@@H](Cc1ccccc1)NC(=O)CN)C(C)C)C(N)=O` [PPI-733, H-Glycyl-d(FFVL)-nh2] (H-G[dF][dF][dV][dL]-NH2), for which, under “5 μM test compound”, the ΔLag was 0.

For the setting “5 μM test compound”, `CC(C)C[C@@H](NC(=O)[C@H](NC(=O)[C@@H](Cc1ccccc1)NC(=O)[C@@H](Cc1ccccc1)NC(=O)[C@@H](C)NC(=O)CN)C(C)C)C(N)=O` [PPI-734, H-Glycyl-d(AFFVL)-nh2] returned a ΔLag of more than 10.

Under “2.5 μM test compound”, `CC(C)C[C@@H](NC(=O)[C@H](NC(=O)[C@@H](Cc1ccccc1)NC(=O)[C@@H](Cc1ccccc1)NC(=O)[C@@H](C)NC(=O)Cc1ccncc1)C(C)C)C(N)=O` [PPI-741, 4-Pyridylacetyl-d(AFFVL)-nh2] ({Acetyl(4-pyridyl)}-[dA][dF][dF][dV][dL]-NH2) returned a ΔLag of 2.0.

Molecule `CC(C)C[C@@H](NC(=O)[C@H](NC(=O)[C@@H](Cc1ccccc1)NC(=O)[C@@H](Cc1ccccc1)NC(=O)[C@@H](C)NC(=O)c1ccnc2ccccc12)C(C)C)C(N)=O` [PPI-746, 4-Quinolinecarboxyl-d(AFFVL)-nh2] (Quinoline4carbonyl-[dA][dF][dF][dV][dL]-NH2) registered a ΔLag (5 μM test compound) of 2.

`CC(C)C[C@@H](NC(=O)[C@H](NC(=O)[C@@H](Cc1ccccc1)NC(=O)[C@@H](Cc1ccccc1)NC(=O)[C@@H](C)NC(=O)c1nccc2ccccc12)C(C)C)C(N)=O` [PPI-748, 1-Isoquinolinecarboxyl-d(AFFVL)-nh2] (X5-[dA][dF][dF][dV][dL]-NH2) gave a ΔLag (5 μM test compound) of less than 3.

In the case of `CC(C)C[C@@H](NC(=O)[C@H](NC(=O)[C@@H](Cc1ccccc1)NC(=O)[C@@H](Cc1ccccc1)NC(=O)[C@@H](C)NC(=O)c1cc2ccccc2cn1)C(C)C)C(N)=O` [PPI-749] ({Isoquinolin(3-yl)carbonyl}-[dA][dF][dF][dV][dL]-NH2), the ΔLag (5 μM test compound) is 3.

`CC(C)C[C@@H](NC(=O)c1ccc(O)cc1)C(=O)N[C@@H](C(=O)N[C@H](Cc1ccccc1)C(=O)N[C@H](Cc1ccc(O)cc1)C(=O)N[C@H](C)C(N)=O)C(C)C` [PPI-772, 4-Hydroxybenzoyl-d(LVFYA)-nh2] ({Benzoyl(4-OH)}-[dL][dV][dF][dY][dA]-NH2): the ΔLag (5 μM test compound) is given as 2.

`CC(C)C[C@@H](NC(=O)c1ccc(O)cc1)C(=O)N[C@@H](C(=O)N[C@H](Cc1ccc(O)cc1)C(=O)N[C@H](Cc1ccccc1)C(=O)N[C@H](C)C(N)=O)C(C)C` [PPI-774, 4-Hydroxybenzoyl-d(LVYFA)-nh2] ({Benzoyl(4-OH)}-[dL][dV][dY][dF][dA]-NH2) displayed a ΔLag (5 μM test compound) of 1.

These data come from patent US20070248996A1, “Modulators of beta-amyloid peptide aggregation comprising D-amino acids” (Paraecis Pharmaceuticals, Inc., priority 1995, published 2007).
